Eleven molecules from patent publication US20210395256A1, “TYROSINE KINASE INHIBITORS, COMPOSITIONS AND METHODS THERE OF” (Betta Pharmaceuticals Co., Ltd., priority 2018, published 2021) can be followed below.

The target in data set [1] is TrkA kinase (Homo sapiens, UniProt P04629). In words: TrkA kinase assay (mobility shift assay). Type of data set: biochemical. To be noted: numeric values; read-out: Trk A Kinase IC50. Put shortly: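 Ten-point compound series was preincubated 10 min at room temperature with TrkA, then FAM-peptide plus ATP added in HEPES pH 7.5/Brij-35 buffer and reacted at 28 °C before EDTA quench.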
Sequence of TrkA kinase (P04629 33-796): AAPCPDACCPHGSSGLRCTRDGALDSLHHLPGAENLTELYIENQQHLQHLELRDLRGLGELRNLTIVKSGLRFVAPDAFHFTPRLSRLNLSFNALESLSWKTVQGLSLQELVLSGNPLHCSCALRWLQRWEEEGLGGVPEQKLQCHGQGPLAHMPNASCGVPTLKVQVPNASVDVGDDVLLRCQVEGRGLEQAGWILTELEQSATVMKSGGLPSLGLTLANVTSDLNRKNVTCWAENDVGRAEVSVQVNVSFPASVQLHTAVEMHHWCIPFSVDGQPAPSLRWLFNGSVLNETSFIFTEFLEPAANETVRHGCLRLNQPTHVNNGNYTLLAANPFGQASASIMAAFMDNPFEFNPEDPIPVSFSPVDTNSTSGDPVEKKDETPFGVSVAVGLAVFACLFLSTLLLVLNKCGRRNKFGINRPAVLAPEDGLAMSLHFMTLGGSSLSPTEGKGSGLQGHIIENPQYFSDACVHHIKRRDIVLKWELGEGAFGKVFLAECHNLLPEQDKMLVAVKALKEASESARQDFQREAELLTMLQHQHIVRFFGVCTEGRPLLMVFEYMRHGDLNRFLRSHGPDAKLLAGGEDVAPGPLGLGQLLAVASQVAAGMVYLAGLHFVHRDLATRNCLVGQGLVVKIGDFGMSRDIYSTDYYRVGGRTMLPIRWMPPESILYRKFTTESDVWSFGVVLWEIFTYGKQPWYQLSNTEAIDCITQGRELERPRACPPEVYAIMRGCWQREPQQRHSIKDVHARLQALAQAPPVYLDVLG

The nature of data set [2]: Liver microsomes metabolic stability assay, human. It is filed as in vitro ADME. The settings on record: human liver microsomes 0.5 mg/mL, 37° C.; for half-life at 2 μM: read-out: t1/2 Human. The method, then:
(§1) Example 203 Liver Microsomes Metabolic Stability Assay
(§2) Pooled human liver microsomes (Cat. 452117) were purchased from Corning. Pooled male rat liver microsomes (Cat. R1000) and pooled male mouse liver microsomes (Cat. M1000) were purchased from XENOTECH. Microsomes were stored at −80° C.
(§3) 1) Make a master solution containing phosphate buffer, ultra-pure H2O and MgCl2 solution according to Table 14.
(§4) 2) Two separated experiments were performed as follows.
(§5) a) With NADPH: 10 μL of 20 mg/mL liver microsomes and 40 μL of 10 mM NADPH were added to the incubations. The final concentrations of microsomes and NADPH were 0.5 mg/mL and 1 mM, respectively.
(§6) b) Without NADPH: 10 μL of 20 mg/mL liver microsomes and 40 μL of ultra-pure H2O were added to the incubations. The final concentration of microsomes was 0.5 mg/mL.
(§7) 3) The reaction was started with the addition of 4 μL test compounds solutions or control compound solution (verapamil) at the final concentration of 2 μM and carried out at 37° C.
(§8) 4) Aliquots of 50 μL were taken from the reaction solution at 0, 15, 30, 45 and 60 min. The reaction solutions were stopped by the addition of 4 volumes of cold acetonitrile with 1S (100 nM alprazolam, 200 nM caffeine, 200 nM labetalol and 2 μM ketoprofen). Samples were centrifuged at 3,220 g for 40 minutes. Aliquot of 100 μL of the supernatant was mixed with 100 μL of ultra-pure H2O and then used for LC-MS/MS analysis. All experiments were performed in duplicate.
(§9) The slope value, k, was determined by linear regression of the natural logarithm of the remaining percentage of the parent drug vs. incubation time curve.
(§10) The in vitro half-life (in vitro t1/2) was determined from the slope value:
(§11) Conversion of the in vitro t1/2 (in min) into the in vitro intrinsic clearance (in vitro CLint, in μL/min/mg proteins) was done using the following equation (mean of duplicate determinations): […]
(§12) The control compound (verapamil) was included in the assay. Any value of the compounds that was not within the specified limits will be rejected and the experiment will be repeated.
Background: Liver microsomes are a subcellular fraction often used to study metabolism.

Data set [3] in a line: Liver microsomes metabolic stability assay, rat. The settings on record: male, rat liver microsomes 0.5 mg/mL, 37° C.; for half-life at 2 μM: read-out: t1/2 Rat. It is filed as in vitro ADME. The method, then: as §1, §2, §3, §4, §5, §6, §7, §8, §9, §10, §11, §12
Data set [4] is described as follows: Liver microsomes metabolic stability assay, mouse. It is filed as in vitro ADME. The settings on record: male, mouse liver microsomes 0.5 mg/mL, 37° C.; for half-life at 2 μM: read-out: t1/2 Mouse. As to the method:
as §1, §2, §3, §4, §5, §6, §7, §8, §9, §10, §11, §12

`Fc1ccc(F)c([C@H]2CCCN2c2ccn3ncc(-c4nnc(-c5ccc6c(c5)CCNC6)[nH]4)c3n2)c1` [Compound 36, (R)-6-(5-(5-(2-(2,5-difluorophenyl)pyrrolidin-1-yl)pyrazolo[1,5-a]pyrimidin-3-yl)-4H-1,2,4-triazol-3-yl)-1,2,3,4-tetrahydroisoquinoline]: the IC50 (commonly the concentration needed to halve the response being measured) in data set [1] was found to be 1.14 nM. The figures for the intrinsic metabolic clearance (microsomal CLint) at 2 μM in data set [2], in data set [3] and in data set [4] were 4.4 µL/min/mg, 19.2 µL/min/mg and 4.6 µL/min/mg, respectively. For the same molecule, the values for the half-life at 2 μM in data set [2], in data set [3] and in data set [4] were 5.25 h, 1.2 h and 5.02 h, respectively.

Consider `Fc1ccc(F)c([C@H]2CCCN2c2ccn3ncc(-c4nnc(-c5ccc(N6CCNCC6)cc5)[nH]4)c3n2)c1` [Compound 40, (R)-5-(2-(2,5-difluorophenyl)pyrrolidin-1-yl)-3-(5-(4-(piperazin-1-yl)phenyl)-4H-1,2,4-triazol-3-yl)pyrazolo[1,5-a]pyrimidine], for which the IC50 in data set [1] worked out at 1.56 nM. Further, the microsomal CLint (in general, a measure of how fast metabolising enzymes remove a compound, apart from limits set by blood flow) at 2 μM in data set [2] came out at 3.2 µL/min/mg; in data set [3] it was 4.6 µL/min/mg; in data set [4] it was 12.4 µL/min/mg. The half-life at 2 μM stood at 7.22 h in data set [2], 5.02 h in data set [3] and 1.86 h in data set [4].

Consider `Fc1ccc(F)c([C@H]2CCCN2c2ccn3ncc(-c4nc5cnccc5[nH]4)c3n2)c1` [Compound 65, (R)-2-(5-(2-(2,5-difluorophenyl)pyrrolidin-1-yl)pyrazolo[1,5-a]pyrimidin-3-yl)-1H-imidazo[4,5-c]pyridine], for which, in data set [1], the concentration for half-maximal inhibition (IC50) was 0.27 nM. For the same molecule, the figures for the intrinsic metabolic clearance (microsomal CLint) at 2 μM in data set [2], in data set [3] and in data set [4] were 12.6 µL/min/mg, 17.2 µL/min/mg and 24 µL/min/mg, respectively. Moreover, the figures for the half-life at 2 μM in data set [2], in data set [3] and in data set [4] were 1.83 h, 1.34 h and 0.963 h, respectively.

For the molecule `Fc1ccc(F)c([C@H]2CCCN2c2ccn3ncc(-c4nc5cc(OC(F)(F)F)ccc5[nH]4)c3n2)c1` [Compound 71, (R)-5-(2-(2,5-difluorophenyl)pyrrolidin-1-yl)-3-(5-(trifluoromethoxy)-1H-benzo[d]imidazol-2-yl)pyrazolo[1,5-a]pyrimidine], the IC50 in data set [1] came to 27.1 nM. Moreover, the microsomal CLint at 2 μM came to 17 µL/min/mg in data set [2], 12.2 µL/min/mg in data set [3] and 10.8 µL/min/mg in data set [4]. Moreover, the half-life at 2 μM in data set [2] came to 1.36 h; in data set [3], 1.89 h; in data set [4], 2.14 h.

For the molecule `Fc1ccc(F)c([C@H]2CCCN2c2ccn3ncc(-c4nc5cnncc5[nH]4)c3n2)c1` [Compound 76, (R)-2-(5-(2-(2,5-difluorophenyl)pyrrolidin-1-yl)pyrazolo[1,5-a]pyrimidin-3-yl)-1H-imidazo[4,5-d]pyridazine], the IC50 in data set [1] is 0.66 nM. In addition, the microsomal CLint at 2 μM in data set [2] turned out to be 21.2 µL/min/mg; in data set [3], 22.2 µL/min/mg; in data set [4] it was 15.6 µL/min/mg. Also, the half-life at 2 μM was 1.09 h in data set [2], 1.04 h in data set [3] and 1.48 h in data set [4].

For `Fc1ccc(F)c([C@H]2CCCN2c2ccn3ncc(-c4nc5cc6c(cc5[nH]4)OC(F)(F)O6)c3n2)c1` [Compound 79, (R)-6-(5-(2-(2,5-difluorophenyl)pyrrolidin-1-yl)pyrazolo[1,5-a]pyrimidin-3-yl)-2,2-difluoro-5H-[1,3]dioxolo[4′,5′:4,5]benzo[1,2-d]imidazole], the IC50 in data set [1] came to 11.9 nM. The microsomal CLint at 2 μM in data set [2] was found to be 10.2 µL/min/mg; in data set [3] it was 10.8 µL/min/mg; in data set [4], 10 µL/min/mg. The half-life at 2 μM turned out to be 2.26 h in data set [2], 2.14 h in data set [3] and 2.31 h in data set [4].

Regarding `Fc1ccc(F)c([C@H]2CCCN2c2ccn3ncc(-c4nc5ccc(OC(F)(F)F)cc5o4)c3n2)c1` [Compound 80, (R)-2-(5-(2-(2,5-difluorophenyl)pyrrolidin-1-yl)pyrazolo[1,5-a]pyrimidin-3-yl)-6-(trifluoromethoxy)benzo[d]oxazole], in data set [1], the IC50 was determined as 23.6 nM. Moreover, the intrinsic clearance (microsomal CLint) at 2 μM in data set [2] is 2.4 µL/min/mg; in data set [3] it was 7 µL/min/mg; in data set [4] it was 8.4 µL/min/mg. Moreover, the half-life at 2 μM in data set [2] was 9.62 h; in data set [3] it was 3.3 h; in data set [4], 2.75 h.

As to `COc1cc2nc(-c3cnn4ccc(N5CCC[C@@H]5c5cc(F)ccc5F)nc34)[nH]c2cc1C(=O)O` [Compound 90, (R)-2-(5-(2-(2,5-difluorophenyl)pyrrolidin-1-yl)pyrazolo[1,5-a]pyrimidin-3-yl)-5-methoxy-1H-benzo[d]imidazole-6-carboxylic acid], the 50% inhibitory concentration (IC50) in data set [1] is 0.44 nM. Besides, the microsomal CLint at 2 μM is 5.6 µL/min/mg in data set [2], 1.4 µL/min/mg in data set [3] and 0.8 µL/min/mg in data set [4]. Also, the half-life at 2 μM is 4.12 h in data set [2], 16.5 h in data set [3] and 28.9 h in data set [4].

Take `Fc1ccc(F)c([C@H]2CCCN2c2ccn3ncc(-c4nc5cc(Cl)c(OC(F)(F)F)cc5[nH]4)c3n2)c1` [Compound 92, (R)-3-(5-chloro-6-(trifluoromethoxy)-1H-benzo[d]imidazol-2-yl)-5-(2-(2,5-difluorophenyl)pyrrolidin-1-yl)pyrazolo[1,5-a]pyrimidine]: the IC50 in data set [1] was found to be 20.7 nM. For the same molecule, the microsomal CLint at 2 μM came out at 20.4 µL/min/mg in data set [2], 10.2 µL/min/mg in data set [3] and 5.6 µL/min/mg in data set [4]. For the same molecule, the figures for the half-life at 2 μM in data set [2], in data set [3] and in data set [4] were 1.13 h, 2.26 h and 4.12 h, respectively.

For `Fc1ccc(F)c([C@H]2CCCN2c2ccn3ncc(-c4nc5cc6c(cc5[nH]4)OCCO6)c3n2)c1` [Compound 96, (R)-2-(5-(2-(2,5-difluorophenyl)pyrrolidin-1-yl)pyrazolo[1,5-a]pyrimidin-3-yl)-6,7-dihydro-1H-[1,4]dioxino[2′,3′:4,5]benzo[1,2-d]imidazole], the IC50 in data set [1] worked out at 0.7 nM. Moreover, the microsomal CLint at 2 μM in data set [2] turned out to be 37 µL/min/mg; in data set [3], 29.4 µL/min/mg; in data set [4], 32 µL/min/mg. For the same molecule, the figures for the half-life at 2 μM in data set [2], in data set [3] and in data set [4] were 0.624 h, 0.786 h and 0.722 h, respectively.

For the molecule `COc1cc2[nH]c(-c3cnn4ccc(N5CCC[C@@H]5c5cc(F)ccc5F)nc34)nc2cc1Cl` [Compound 112, (R)-3-(5-chloro-6-methoxy-1H-benzo[d]imidazol-2-yl)-5-(2-(2,5-difluorophenyl)pyrrolidin-1-yl)pyrazolo[1,5-a]pyrimidine], the IC50 in data set [1] is 3.2 nM. The microsomal CLint at 2 μM in data set [2] was 16.8 µL/min/mg; in data set [3], 34 µL/min/mg; in data set [4], 27.4 µL/min/mg. For the same molecule, the half-life at 2 μM in data set [2] worked out at 1.38 h; in data set [3] it was 0.679 h; in data set [4], 0.843 h.
